Reference: patent publication US20050107289A1, “Anti-microbial peptides and compositions” (priority 2001, published 2005)
Where a name gives a salt, the structure may show the parent alone. Read-outs that look alike come from different tables or passages of the source. Non-standard residues stand in square brackets, D forms with d. Residues, ends and D or L forms follow the SMILES beside them. NMeL = CN[C@@H](CC(C)C)C(=O)O

Legend:
[1] = system: vancomycin-resistant Enterococus faecalis (VRE)(ATCC 51575); assay type: cell-based, Enterococcus faecalis; design: key to VRE (in vitro activity): peptide concentration in μg/ml (broth dilution assay); conditions: for VRE MIC: ATCC 51575; for VRE (in vitro activity): Table 9
Method in brief: (§1)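 Overnight bacterial cultures, diluted 4000 times to roughly 2.5×10^5 cfu/ml, are added to 2-fold peptide dilution series. Peptide series span approximately 400-2 μg/ml as prepared in DMSO/aqueous sucrose, before mixing with inoculum. Testing follows NCCLS M7-A4 broth dilution, chiefly the microdilution format.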

[2] = system: Streptococcus pneumoniae (ATCC 6301); assay type: cell-based
Experimental: (§2) The antimicrobial activity of the peptides was determined using a broth dilution assay essentially as descried in the guidelines of the National Committee for […] (NCCLS) [National Committee for Clinical Laboratory Standards. Methods for dilution antimicrobial susceptibility tests for bacteria that grow aerobically. Fourth edition. Approved Standard (1997). Document M7-A4. […] The microdilution method has the advantages of requiring less amount of peptide for each assay and the possibility of multiple simultaneous inoculations and was used in most studies. Several of the strains of bacteria tested are further described in Table 3.
(§3) Preparation of peptide solutions. Stock peptide solutions were prepared in 5% DMSO in aq. sucrose (9%). Determination of peptide concentrations was done by quantitative HPLC analysis using known concentrations of internal standards and/or by measuring UV absorption of tryptophane-containing peptide solutions in H2O (λ=280 εTrp: 5690). Serial 2-fold dilutions were made in the above DMSO/aq. sucrose (9%) mixture with concentrations ranging approximately 400-2 μg/ml and aliquots were dispensed in test tubes (100 μl) for the macrodilution test or in microtiter plates (20 μl) for the microdilution assays.
(§4) Inoculum preparation. Overnight cultures of different microorganisms grown in suitable media were diluted 4000 times to an approximate inoculum size of 2.5×10^5 cfu/ml.
(§5) Macrodilution method. Macrodilution methods were performed using procedures similar to those described in the National Committee for Clinical Laboratory Standards. Methods for dilution antimicrobial susceptibility tests for bacteria that grow aerobically. Fourth edition. Approved Standard (1997). Document M7-A4. (NCCLS,Villanova, Pa., 1997). Two ml aliquots of the above inoculum were dispensed to test tubes containing different peptide solutions.
(§6) Microdilution method. Microdilution methods were performed using procedures similar to those described in the National Committee for Clinical Laboratory Standards. Methods for dilution antimicrobial susceptibility tests for bacteria that grow aerobically. Fourth edition. Approved Standard (1997). Document M7-A4.

[3] = system: Bacillus cereus ATCC 11778; assay type: cell-based
Experimental: as §2, §3, §4, §5, §6

[4] = system: S. aureus (MRSA) ATCC 33591; assay type: cell-based, Staphylococcus aureus; conditions: for MRSA (in vitro activity): Table 9
Method in brief: as §1

[5] = system: S. aureus MRSA (ATCC 33591); test: Mouse peritonitis model, MRSA protection; assay type: in vivo, mice; design: PD50 MRSA: unit not given here
Experimental: Bacteria were prepared for in vivo using procedures similar to those as previously described. […] S. aureus MRSA bacteria (ATCC 33591) were grown at 37° C. in 5 mL of Antibiotic Medium-3 (AM-3, Difco Laboratories) with agitation for 12 hours to a stationary phase. Cells were collected by centrifugation, washed twice with saline solution and resuspended in about 10 mL of saline to an O.D.650 of 1.2. This suspension was diluted ten times in a sterilized 5% mucin (Difco) in saline to a concentration of 2-4×10^7 cfu/ml (actual inoculum size was verified by colony counts on agar plates).
(§7) Peptides of the invention were tested in mice to ascertain whether they would protect the mice against bacterial infection using procedures similar to those described in N. Frimodt-Moller et al., The Mouse Peritonitis/Sepsis Model, in Zak et al. (eds.) HANDBOOK OF ANIMAL MODELS OF INFECTION 127-37 (Academic Press 1999).
(§8) Male Balb-C mice (6 weeks old, approximately 20 g) were used in the study. Staphylococcus aureus MRSA bacteria (ATCC 33591) were grown at 37° C. with agitation for 12 hours to a stationary phase. Cells were collected by centrifugation, washed twice with saline and resuspended to an O.D.650 of 1.4. This suspension was diluted ten times with saline and resuspended to a concentration of 3-5×10^7 cfu/ml. For each peptide five groups of eight mice per group were infected I.P. with 0.5 ml of the above Staphylococcus aureus MRSA preparation (lethal dose). Forty-five minutes to an hour after infection, each group was treated with a different dose of peptide and a control group received vehicle only. Mice were monitored for fourteen days; death was defined as the end point. Median protecting doses (PD50) were calculated following the Reed and Muench method. […] For IV and SQ models peptide was administered immediately after IP infection.

[6] = system: vancomycin resistant E. faecium (VREF)(ATCC 51575); test: Mouse peritonitis model, VREF protection; assay type: in vivo, mice; design: PD50 VREF: unit not given here
Experimental: Vancomycin resistant Enterococcus faecium (VREF) bacteria (ATCC 51575) were grown at 37° C. in 60 mL of Brain Heart Infusion medium (BHI, Difco Laboratories) with agitation for 16 hours to a stationary phase. Cells were collected by centrifugation, washed twice with saline solution and resuspended in 6 mL of saline to a theoretical O.D.650 of 9-10 (determined by taking OD.650 of 10-20 fold diluted samples and correlating it to the original concentration). This suspension was diluted 15 times in a sterilized 5% mucin (Difco) in saline to a concentration of 5-7×10^8 cfu/ml (actual inoculum size was verified by colony counts on agar plates).
as §7, §8

murine red blood cells = test: Red blood cell hemolysis; assay type: cell-based, mouse; conditions: for Hemolysis HD50: red cells of murine
Method in brief: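 Hemolysis read as A560 of supernatant, scaled between saline (0%) and 1% Triton X-100 (100%) controls; peptides were serially diluted onto 5% murine red cells in saline plus 10% FBS and incubated 30 min at 37° C.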

E. coli JM109(DE3) = assay type: cell-based, Escherichia coli; conditions: JM109
Experimental: as §2, §3, §4, §5, §6

E. faecium SP180 = test: microbe, parasite or virus in culture; assay type: cell-based, Enterococcus faecium; conditions: SP180
Experimental: as §2, §3, §4, §5, §6

H. influenzae ATCC 49247 = test: microbe, parasite or virus in culture; assay type: cell-based, Hemophilus influenzae; conditions: ATCC 49247
Experimental: as §2, §3, §4, §5, §6

S. aureus ATCC 33592 = test: microbe, parasite or virus in culture; assay type: cell-based, Staphylococcus aureus; conditions: ATCC 33592
Experimental: as §2, §3, §4, §5, §6

E. faecalis ATCC 51299 = test: microbe, parasite or virus in culture; assay type: cell-based, Enterococcus faecalis; conditions: ATCC 51299
Experimental: as §2, §3, §4, §5, §6

[7] = media a: anti-microbial media-3 (AM-3)
[8] = Table 12, male Balb-C mice, IP infection, IP peptide
[9] = single bolus IP dose of appropriate amount, 45-60 min after infection

Compound | VRE MIC [1] | S. pneum. MIC [2] | B. cerius MIC [3] | MRSA MIC ([4]; ATCC 33591) | E. coli MIC (E. coli JM109(DE3)) | RBC Hemolysis (HD50) (murine red blood cells) | Hemolysis HD50 (murine red blood cells) | further results
CC(C)C[C@H]1NC(=O)[C@H](Cc2c[nH]c3ccccc23)NC(=O)[C@@H](CCCCN)NC(=O)[C@H](CCCCN)NC(=O)[C@@H](CCCCN)NC(=O)[C@H](Cc2c[nH]c3ccccc23)NC(=O)[C@@H](CC(C)C)NC(=O)[C@H](Cc2c[nH]c3ccccc23)NC1=O [SEQ ID NO:17, cyclo[-(D-Lys-Lys-D-Lys-(Trp-D-Leu)2-Trp-]] (cyclo([dK]K[dK]W[dL]W[dL]W)) | 40 µg/mL | 10 µg/mL | 5 µg/mL | 10 µg/mL | – | 45 | – | VRE (in vitro activity) ([1]; media a: AM-3): 40; S. aureus (MRSA) MIC ([4]; ATCC 33591): 8 µg/mL; MRSA (in vitro activity) [4, 7]: 10; PD50 S. aureus MRSA infection [5]: 7 mg/kg; PD50 protective dose where 50% of animals survive ([5]; FIG. 6, mice challenged with lethal doses of MRSA): 6 ± 2 mg/kg; PD50 MRSA [5, 8]: 7; protection of mice from MRSA infection [5, 9]: completely protect; PD50 E. faecium VREF infection [6]: 13 mg/kg; PD50 VREF [6, 8]: 13; protection of mice from VREF infection [6, 9]: completely protect
CC(=O)N[C@H](CCCNC(=N)N)C(=O)N[C@@H](CCCNC(=N)N)C(=O)N[C@H](CCCCN)C(=O)N[C@@H](Cc1c[nH]c2ccccc12)C(=O)N[C@H](CC(C)C)C(=O)N[C@@H](Cc1c[nH]c2ccccc12)C(=O)N[C@H](CC(C)C)C(=O)N[C@@H](Cc1c[nH]c2ccccc12)C(N)=O [SEQ ID NO:136, Ac-RRKWLWLW-NH2] (Ac-[dR]R[dK]W[dL]W[dL]W-NH2) | 100 µg/mL | 40 µg/mL | 22 µg/mL | 70 µg/mL | 6 µg/mL | – | 100 µg/mL | –
CC(C)C[C@H]1C(=O)N[C@H](Cc2c[nH]c3ccccc23)C(=O)N(C)[C@@H](CC(C)C)C(=O)N[C@H](Cc2c[nH]c3ccccc23)C(=O)N[C@@H](CCCNC(=N)N)C(=O)N[C@H](CCCNC(=N)N)C(=O)N[C@@H](CCCCN)C(=O)N[C@H](Cc2c[nH]c3ccccc23)C(=O)N1C [SEQ ID NO:139, c[RRKW^MeLW^MeLW]] (cyclo(R[dR]K[dW][NMeL][dW][NMeL][dW])) | 30 µg/mL | 10 µg/mL | 5 µg/mL | 5 µg/mL | 5 µg/mL | – | 100 µg/mL | –
CC(C)C[C@H]1NC(=O)[C@H](Cc2c[nH]c3ccccc23)NC(=O)[C@@H](CCCCN)NC(=O)[C@H](CO)NC(=O)[C@@H](CCCCN)NC(=O)[C@H](Cc2c[nH]c3ccccc23)NC(=O)[C@@H](CC(C)C)NC(=O)[C@H](Cc2c[nH]c3ccccc23)NC1=O [[KSKWLWLW]-HCl, D-Lys-Ser-D-Lys-Trp-D-Leu-Trp-D-Leu-Trp] (cyclo([dK]S[dK]W[dL]W[dL]W)) | – | – | – | – | – | 60 | – | VRE (in vitro activity) ([1]; media c: Brain Heart Infusion (BHI)): 9; MRSA (in vitro activity) ([4]; media b: cation adjusted Meuller Hinton broth (MHBII)): 9; E. faecium SP180 MIC (E. faecium SP180): 4 µg/mL; H. influenzae ATCC 49247 MIC (H. influenzae ATCC 49247): 32 µg/mL; S. aureus ATCC 33592 MIC (S. aureus ATCC 33592): 4 µg/mL; E. faecalis ATCC 51299 MIC (E. faecalis ATCC 51299): 8 µg/mL

Further lines, with some results ahead:

VRE MIC [1] | S. pneum. MIC [2] | B. cerius MIC [3] | MRSA MIC ([4]; ATCC 33591) | E. coli MIC (E. coli JM109(DE3)) | Compound | RBC Hemolysis (HD50) (murine red blood cells) | Hemolysis HD50 (murine red blood cells) | further results
100 µg/mL | 12 µg/mL | 24 µg/mL | 40 µg/mL | 5 µg/mL | CC(C)C[C@H]1NC(=O)[C@H](Cc2c[nH]c3ccccc23)NC(=O)[C@@H](CCCNC(=N)N)NC(=O)[C@H](CCCNC(=N)N)NC(=O)[C@@H](CC(C)C)NC(=O)[C@H](Cc2c[nH]c3ccccc23)NC1=O [SEQ ID NO:115, [RRWLWL]] (cyclo(R[dR]W[dL]W[dL])) | 90 | 90 µg/mL | VRE (in vitro activity) ([1]; media a: AM-3): 100; MRSA (in vitro activity) [4, 7]: 40
100 µg/mL | 80 µg/mL | 19 µg/mL | 30 µg/mL | 3 µg/mL | CC(C)C[C@@H](NC(=O)[C@H](Cc1c[nH]c2ccccc12)NC(=O)[C@@H](CC(C)C)NC(=O)[C@H](Cc1c[nH]c2ccccc12)NC(=O)[C@@H](CCCCN)NC(=O)[C@H](CCCCN)NC(=O)[C@H](N)CCCCN)C(=O)N[C@@H](Cc1c[nH]c2ccccc12)C(N)=O [SEQ ID NO:134, H-KKKWLWLW-NH2] (H-[dK]K[dK]W[dL]W[dL]W-NH2) | – | 100 µg/mL | –
100 µg/mL | 40 µg/mL | 19 µg/mL | 20 µg/mL | 4 µg/mL | CC(C)C[C@@H](NC(=O)[C@H](Cc1c[nH]c2ccccc12)NC(=O)[C@@H](CC(C)C)NC(=O)[C@H](Cc1c[nH]c2ccccc12)NC(=O)[C@@H](CCCCN)NC(=O)[C@H](CCCNC(=N)N)NC(=O)[C@H](N)CCCNC(=N)N)C(=O)N[C@@H](Cc1c[nH]c2ccccc12)C(N)=O [SEQ ID NO:135, H-RRKWLWLW-NH2] (H-[dR]R[dK]W[dL]W[dL]W-NH2) | – | 100 µg/mL | –
40 µg/mL | 20 µg/mL | 9 µg/mL | 5 µg/mL | 4 µg/mL | CC(C)C[C@@H](N)C(=O)N[C@@H](Cc1c[nH]c2ccccc12)C(=O)N[C@H](CCCNC(=N)N)C(=O)N[C@@H](CCCNC(=N)N)C(=O)N[C@H](CCCCN)C(=O)N[C@@H](Cc1c[nH]c2ccccc12)C(=O)N[C@H](CC(C)C)C(=O)N[C@@H](Cc1c[nH]c2ccccc12)C(N)=O [SEQ ID NO:137, H-LWRRKWLW-NH2] (H-[dL]W[dR]R[dK]W[dL]W-NH2) | – | 100 µg/mL | –
100 µg/mL | 20 µg/mL | 20 µg/mL | 15 µg/mL | 7 µg/mL | CC(=O)N[C@H](CC(C)C)C(=O)N[C@@H](Cc1c[nH]c2ccccc12)C(=O)N[C@H](CCCNC(=N)N)C(=O)N[C@@H](CCCNC(=N)N)C(=O)N[C@H](CCCCN)C(=O)N[C@@H](Cc1c[nH]c2ccccc12)C(=O)N[C@H](CC(C)C)C(=O)N[C@@H](Cc1c[nH]c2ccccc12)C(N)=O [SEQ ID NO:138, Ac-LWRRKWLW-NH2] (Ac-[dL]W[dR]R[dK]W[dL]W-NH2) | – | 100 µg/mL | –
